Assay results reported in ChEMBL document CHEMBL1212934, “Isolation of pandamarilactonine-H from the roots of Pandanus amaryllifolius and synthesis of epi-pandamarilactonine-H” (J Nat Prod, 2010).

Experiments:
Type in all cases: functional, cell-based
A549 = test: Cytotoxicity against human A549 cells
HT-29 = test: Cytotoxicity against human HT-29 cells
HCT-116 = test: Cytotoxicity against human HCT116 cells

Measured: IC50

COC(=O)C[C@@H]1CCCN1CCC/C=C1\C=C(C)C(=O)O1
> 5 µg/mL: all assays above

COC(=O)C[C@H]1CCCN1CCC/C=C1/C=C(C)C(=O)O1
> 5 µg/mL: all assays above

CC1=C[C@H]([C@H]2CCCN2CCCC[C@@H]2C[C@@H](C)C(=O)O2)OC1=O
> 5 µg/mL: all assays above

COC(=O)C[C@H]1CCCN1CCC/C=C1\C=C(C)C(=O)O1
> 5 µg/mL: all assays above
